According to patent US12398107B2, “Fungicidal nitroanilino substituted pyrazoles” (FMC Corporation, priority 2018, dated 2025):

Columns and labels:
Type in all cases: in vivo
[1] = test system: Alternaria solani; experiment: Test F: tomato early blight, preventive spray on tomato seedlings; conditions: 100 = 100% disease control, 0 = no control; for pest or weed control at 10 ppm / pest or weed control at 50 ppm: Alternaria solani, read-out: Test F disease control rating (tomato early blight); for pest or weed control at 50 ppm / Test F disease control rating (tomato early blight): 50 ppm
How it was run: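 Preventive test: one day after seedlings were sprayed to run-off with ppm-level suspensions (acetone/water 50/50, 250 ppm PEG400), A. solani spore inoculation followed. Incubation was 48 h at 27° C in saturated air plus 3 days at 20° C; disease control was scored visually versus controls (100 = full control).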

[2] = test system: Botrytis cinerea; experiment: Test E: tomato Botrytis, preventive spray on tomato seedlings; conditions: 100 = 100% disease control, 0 = no control; for pest or weed control at 10 ppm / pest or weed control at 50 ppm: Botrytis cinerea, read-out: Test E disease control rating (tomato Botrytis); for pest or weed control at 50 ppm / Test E disease control rating (tomato Botrytis): 50 ppm
How it was run: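 Preventive test: spore inoculation one day after run-off spraying of compound suspension (3% acetone, acetone/water 50/50, 250 ppm PEG400). Incubation 20 °C saturated humidity for 48 h, followed by 3 days at 24 °C growth chamber; disease control scored visually, 100 = full control.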

[3] = test system: Septoria tritici; experiment: Test A: wheat leaf blotch, preventive spray on wheat seedlings; conditions: 100 = 100% disease control, 0 = no control relative to controls; for pest or weed control at 10 ppm / pest or weed control at 50 ppm: Zymoseptoria tritici, read-out: Test A disease control rating (wheat leaf blotch); for pest or weed control at 50 ppm / Test A disease control rating (wheat leaf blotch): 50 ppm
How it was run: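 Preventive test: seedlings sprayed to run-off one day before Septoria tritici spore inoculation, with ppm doses in acetone/water containing 250 ppm PEG400. After 48 h at 24 °C in saturated air and 17 days at 20 °C, plants were scored 0–100 for disease control versus untreated controls.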

[4] = test system: Phakopsora pachyrhizi; experiment: Test D: Asian soybean rust, preventive spray on soybean seedlings; conditions: 100 = 100% disease control, 0 = no control; for pest or weed control at 10 ppm / pest or weed control at 50 ppm: Phakopsora pachyrhizi, read-out: Test D disease control rating (Asian soybean rust); for pest or weed control at 50 ppm / Test D disease control rating (Asian soybean rust): 50 ppm
How it was run: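 Soybean seedlings sprayed to run-off with compound suspension (ppm, in 50/50 acetone/water with 250 ppm PEG400), inoculated next day with P. pachyrhizi spores, held 24 h saturated at 22°C then 8 days at 22°C. Visual rating 0-100% disease control relative to controls.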

[5] = test system: Blumeria graminis f. sp. tritici; experiment: Test C: wheat powdery mildew, preventive spray on wheat seedlings; conditions: rated after 8 days, 100 = 100% disease control, 0 = no control; for pest or weed control at 10 ppm / pest or weed control at 50 ppm: Blumeria graminis, 192 h, read-out: Test C disease control rating (wheat powdery mildew); for pest or weed control at 50 ppm / Test C disease control rating (wheat powdery mildew): 50 ppm
How it was run: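 Wheat seedlings got a run-off spray of test suspension (ppm in acetone/water 50/50, 250 ppm PEG400, acetone 3% of volume), then spore-dust inoculation with wheat powdery mildew one day later. After 8 days' growth-chamber incubation at 20° C, disease control scored visually on a 0–100 scale versus untreated controls.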

[6] = test system: Puccinia recondita f. sp. tritici; experiment: Test B: wheat leaf rust, preventive spray on wheat seedlings; conditions: 100 = 100% disease control, 0 = no control relative to controls; for pest or weed control at 10 ppm / pest or weed control at 50 ppm: read-out: Test B disease control rating (wheat leaf rust); for pest or weed control at 50 ppm / Test B disease control rating (wheat leaf rust): 50 ppm
How it was run: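 Wheat seedlings got a run-off spray (ppm, acetone/water 50/50, 250 ppm PEG400) and one day later a spore inoculum. After 24 h at 20° C. in saturated air and 7 days at 20° C., disease was scored as % control relative to controls (100 = full control).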

Cc1nn(C)c(Nc2c(F)cccc2[N+](=O)[O-])c1-c1c(F)cc(F)cc1Cl [Compound 68, 4-(2-chloro-4,6-difluorophenyl)-N-(2-fluoro-6-nitrophenyl)-1,3-dimethyl-1H-pyrazol-5-amine]
pest or weed control at 10 ppm [1]: 98% | pest or weed control at 50 ppm [1]: 99% | pest or weed control at 10 ppm [2]: 100% | pest or weed control at 50 ppm [2]: 100% | pest or weed control at 10 ppm [3]: 100% | pest or weed control at 50 ppm [3]: 100% | pest or weed control at 10 ppm [4]: 32% | pest or weed control at 50 ppm [4]: 99% | pest or weed control at 10 ppm [5]: 96% | pest or weed control at 50 ppm [5]: 100% | pest or weed control at 10 ppm [6]: 100% | pest or weed control at 50 ppm [6]: 100%

Cc1nn(C)c(Nc2c(F)cccc2[N+](=O)[O-])c1-c1ccc(Cl)cc1Cl [Compound 69]
Test F disease control rating (tomato early blight) [1]: 99% | Test E disease control rating (tomato Botrytis) [2]: 100% | Test A disease control rating (wheat leaf blotch) [3]: 100% | Test D disease control rating (Asian soybean rust) [4]: 77% | Test C disease control rating (wheat powdery mildew) [5]: 97% | Test B disease control rating (wheat leaf rust) [6]: 100%

COc1cc(F)c(-c2c(C)nn(C)c2Nc2c(F)cccc2[N+](=O)[O-])c(F)c1 [Compound 70]
Test F disease control rating (tomato early blight) [1]: 99% | Test E disease control rating (tomato Botrytis) [2]: 99% | Test A disease control rating (wheat leaf blotch) [3]: 100% | Test D disease control rating (Asian soybean rust) [4]: 84% | Test C disease control rating (wheat powdery mildew) [5]: 99% | Test B disease control rating (wheat leaf rust) [6]: 100%

CCn1nc(C)c(-c2ccc(F)cc2Cl)c1Nc1c(F)cccc1[N+](=O)[O-] [Compound 71]
Test F disease control rating (tomato early blight) [1]: 98% | Test E disease control rating (tomato Botrytis) [2]: 99% | Test A disease control rating (wheat leaf blotch) [3]: 100% | Test D disease control rating (Asian soybean rust) [4]: 82% | Test C disease control rating (wheat powdery mildew) [5]: 99% | Test B disease control rating (wheat leaf rust) [6]: 100%

CCc1nn(C)c(Nc2c(F)cccc2[N+](=O)[O-])c1-c1ccc(F)cc1Cl [Compound 72, 4-(2-chloro-4-fluorophenyl)-N-(2-fluoro-6-nitrophenyl)-3-ethyl-1-methyl-1H-pyrazol-5-amine]
pest or weed control at 10 ppm [1]: 63% | pest or weed control at 50 ppm [1]: 99% | pest or weed control at 10 ppm [2]: 98% | pest or weed control at 50 ppm [2]: 98% | pest or weed control at 10 ppm [3]: 100% | pest or weed control at 50 ppm [3]: 100% | pest or weed control at 10 ppm [4]: 12% | pest or weed control at 50 ppm [4]: 31% | pest or weed control at 10 ppm [5]: 81% | pest or weed control at 50 ppm [5]: 99% | pest or weed control at 10 ppm [6]: 85% | pest or weed control at 50 ppm [6]: 100%

COc1ccc(-c2c(C)nn(C)c2Nc2c(Cl)cc(F)cc2[N+](=O)[O-])c(Cl)c1 [Compound 73, N-(2-chloro-4-fluoro-6-nitrophenyl)-4-(2-chloro-4-methoxyphenyl)-1,3-dimethyl-1H-pyrazol-5-amine]
pest or weed control at 50 ppm [1]: 97% | pest or weed control at 50 ppm [2]: 99% | pest or weed control at 50 ppm [3]: 100% | pest or weed control at 50 ppm [4]: 98% | pest or weed control at 50 ppm [5]: 96% | pest or weed control at 50 ppm [6]: 100%

COc1ccc(-c2c(C)nn(C)c2Nc2ccc(Cl)cc2[N+](=O)[O-])c(Cl)c1 [Compound 74]
Test F disease control rating (tomato early blight) [1]: 85% | Test E disease control rating (tomato Botrytis) [2]: 99% | Test A disease control rating (wheat leaf blotch) [3]: 99% | Test D disease control rating (Asian soybean rust) [4]: 74% | Test C disease control rating (wheat powdery mildew) [5]: 81% | Test B disease control rating (wheat leaf rust) [6]: 86%

Cc1nn(C)c(Nc2c(F)cc(F)cc2[N+](=O)[O-])c1-c1c(F)cccc1F [Compound 75]
Test F disease control rating (tomato early blight) [1]: 98% | Test E disease control rating (tomato Botrytis) [2]: 57% | Test A disease control rating (wheat leaf blotch) [3]: 100% | Test D disease control rating (Asian soybean rust) [4]: 0% | Test C disease control rating (wheat powdery mildew) [5]: 90% | Test B disease control rating (wheat leaf rust) [6]: 99%

Cc1nn(C)c(Nc2c(Cl)cc(F)cc2[N+](=O)[O-])c1-c1c(F)cccc1F [Compound 76]
Test F disease control rating (tomato early blight) [1]: 0% | Test E disease control rating (tomato Botrytis) [2]: 87% | Test A disease control rating (wheat leaf blotch) [3]: 100% | Test D disease control rating (Asian soybean rust) [4]: 25% | Test C disease control rating (wheat powdery mildew) [5]: 95% | Test B disease control rating (wheat leaf rust) [6]: 99%

Cc1nn(C)c(Nc2c(Cl)cccc2[N+](=O)[O-])c1-c1c(F)cccc1F [Compound 77]
Test F disease control rating (tomato early blight) [1]: 9% | Test E disease control rating (tomato Botrytis) [2]: 72% | Test A disease control rating (wheat leaf blotch) [3]: 100% | Test D disease control rating (Asian soybean rust) [4]: 73% | Test C disease control rating (wheat powdery mildew) [5]: 95% | Test B disease control rating (wheat leaf rust) [6]: 100%

Cc1nn(C)c(Nc2ccc(Cl)cc2[N+](=O)[O-])c1-c1ccc(F)cc1F [Compound 78]
Test F disease control rating (tomato early blight) [1]: 0% | Test E disease control rating (tomato Botrytis) [2]: 68% | Test A disease control rating (wheat leaf blotch) [3]: 100% | Test D disease control rating (Asian soybean rust) [4]: 0% | Test C disease control rating (wheat powdery mildew) [5]: 95% | Test B disease control rating (wheat leaf rust) [6]: 89%

Cc1nn(C)c(Nc2c(Cl)cccc2[N+](=O)[O-])c1-c1ccc(F)cc1F [Compound 79]
Test F disease control rating (tomato early blight) [1]: 0% | Test E disease control rating (tomato Botrytis) [2]: 98% | Test A disease control rating (wheat leaf blotch) [3]: 100% | Test D disease control rating (Asian soybean rust) [4]: 44% | Test C disease control rating (wheat powdery mildew) [5]: 91% | Test B disease control rating (wheat leaf rust) [6]: 100%

COc1cc(Cl)c(Nc2c(-c3ccc(F)cc3Cl)c(C)nn2C)c([N+](=O)[O-])c1 [Compound 80]
Test F disease control rating (tomato early blight) [1]: 98% | Test E disease control rating (tomato Botrytis) [2]: 95% | Test A disease control rating (wheat leaf blotch) [3]: 100% | Test D disease control rating (Asian soybean rust) [4]: 50% | Test C disease control rating (wheat powdery mildew) [5]: 97% | Test B disease control rating (wheat leaf rust) [6]: 100%

COc1ccc(-c2c(C)nn(C)c2Nc2c(F)cc(Cl)cc2[N+](=O)[O-])c(Cl)c1 [Compound 81]
Test F disease control rating (tomato early blight) [1]: 99% | Test E disease control rating (tomato Botrytis) [2]: 95% | Test A disease control rating (wheat leaf blotch) [3]: 100% | Test D disease control rating (Asian soybean rust) [4]: 0% | Test C disease control rating (wheat powdery mildew) [5]: 89% | Test B disease control rating (wheat leaf rust) [6]: 99%
